In patent publication US20230158025A1 (UNIVERSITY OF UTAH RESEARCH FOUNDATION, priority 2020, published 2023):
Read-outs that look alike come from different tables or passages of the source.

Key:
recombinant mouse GALK1 = recombinant mouse GALK1 (Mus musculus, UniProt Q9R0N0); assay: mGALK1 biochemical activity assay (Kinase-Glo Plus, ATP depletion)
Method: In vitro hGALK1 activity assays were performed as previously described. Liu et al., Bioorg. […] The biochemical assay was performed by coupling the activity of recombinant human or mouse GALK1 to the Kinase-Glo Plus luminescent ATP detection kit, using ATP depletion as a measure of GALK1 turnover. […] One μL/well of GALK-galactose solution (5 nM GALK1, 100 μM galactose) in assay buffer was then added, yielding a final reaction volume of 4 μL/well. Following a 1-hour room temperature incubation, 4 μL of Kinase-Glo Plus detection reagent was added to provide an ATP-dependent luminescent readout (final assay volume: 8 μL/well).

recombinant human GALK1 = recombinant human GALK1 (Homo sapiens, UniProt P51570); assay: hGALK1 biochemical activity assay (Kinase-Glo Plus, ATP depletion)
Method: In vitro hGALK1 activity assays were performed as previously described. Liu et al., Bioorg. Med. Chem. Lett. 25(3): 721-727 (2015), which is incorporated by reference herein for the specific teachings thereof. The biochemical assay was performed by coupling the activity of recombinant human or mouse GALK1 to the Kinase-Glo Plus luminescent ATP detection kit, using ATP depletion as a measure of GALK1 turnover. Specifically, three μL/well of ATP substrate solution (35 μM ATP) in assay buffer (20 mM HEPES pH 8.0, 5 mM MgCl2, 60 mM NaCl, 1 mM DTT, 0.01% BSA final concentration) was dispensed into 1536-well assay plates (Greiner, white solid-bottom medium-binding plates). Aliquots of compound (23 nL solubilized in DMSO) were transferred to the assay plates using a Kalypsys 1536-well pintool such that 11 concentrations with 1/3 dilutions ranging from 57.4 μM-0.97 nM are tested. One μL/well of GALK-galactose solution (5 nM GALK1, 100 μM galactose) in assay buffer was then added, yielding a final reaction volume of 4 μL/well. Following a 1-hour room temperature incubation, 4 μL of Kinase-Glo Plus detection reagent was added to provide an ATP-dependent luminescent readout (final assay volume: 8 μL/well).

[1] = rat microsomal stability (RLM)
[2] = aqueous kinetic solubility
[3] = recombinant mouse GALK1, Kinase-Glo Plus ATP depletion
[4] = recombinant human GALK1, Kinase-Glo Plus ATP depletion
[5] = Tables 2-15, 35 μM ATP, 100 μM galactose, 1 h, bracketed figure after some values is undefined and not reported, read-out: mGALK IC50
[6] = recombinant mouse GALK1, Kinase-Glo Plus ATP depletion, read-out: mGALK
[7] = Tables 2-15, 35 μM ATP, 100 μM galactose, 1 h, bracketed figure after some values (e.g. −1.2) is undefined and not reported, read-out: hGALK IC50
[8] = recombinant human GALK1, Kinase-Glo Plus ATP depletion, read-out: hGALK
[9] = Tables 2-15, 35 μM ATP, 100 μM galactose, 1 h, bracketed figure after some values is undefined and not reported
[10] = Tables 2-15, 35 μM ATP, 100 μM galactose, 1 h, bracketed figure after some values (e.g. −1.2) is undefined and not reported
[11] = recombinant mouse GALK1, Kinase-Glo Plus ATP depletion, bracketed figure in the cell, e.g. (−1.2), is not defined in the text shown, read-out: mGALK
[12] = recombinant human GALK1, Kinase-Glo Plus ATP depletion, bracketed figure in the cell, e.g. (−1.2), is not defined in the text shown, read-out: hGALK
[13] = microsomal stability half-life, minutes

Sequence of recombinant mouse GALK1 (Q9R0N0 whole entry): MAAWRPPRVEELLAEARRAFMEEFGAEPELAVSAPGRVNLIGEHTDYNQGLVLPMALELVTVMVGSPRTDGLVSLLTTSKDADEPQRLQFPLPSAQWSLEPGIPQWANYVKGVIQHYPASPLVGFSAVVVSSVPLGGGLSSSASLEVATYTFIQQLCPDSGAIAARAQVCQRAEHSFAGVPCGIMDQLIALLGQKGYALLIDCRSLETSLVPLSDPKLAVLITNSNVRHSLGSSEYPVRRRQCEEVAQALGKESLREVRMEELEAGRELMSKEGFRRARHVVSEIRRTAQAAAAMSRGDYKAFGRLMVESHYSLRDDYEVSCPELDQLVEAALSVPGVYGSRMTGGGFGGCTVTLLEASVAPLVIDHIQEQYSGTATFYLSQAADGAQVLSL
Sequence of recombinant human GALK1 (P51570 whole entry): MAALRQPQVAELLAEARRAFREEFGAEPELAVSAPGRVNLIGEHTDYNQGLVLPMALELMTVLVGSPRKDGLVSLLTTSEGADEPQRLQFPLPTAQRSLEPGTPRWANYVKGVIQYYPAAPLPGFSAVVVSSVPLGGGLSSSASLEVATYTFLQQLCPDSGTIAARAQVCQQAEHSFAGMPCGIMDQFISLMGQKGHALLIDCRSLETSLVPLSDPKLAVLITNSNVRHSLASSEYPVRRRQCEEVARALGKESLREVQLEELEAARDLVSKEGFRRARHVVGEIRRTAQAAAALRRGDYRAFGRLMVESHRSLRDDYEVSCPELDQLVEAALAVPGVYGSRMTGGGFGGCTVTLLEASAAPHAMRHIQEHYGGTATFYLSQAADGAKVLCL

SMILES | mGALK (μM) (recombinant mouse GALK1; [3]) | Metab. Stabil. (m) ([1]; microsomal stability half-life) | Sol. ([2]; aqueous kinetic solubility) [µg/mL] | IC50 (recombinant mouse GALK1; [6]) [µM] | IC50 (recombinant human GALK1; [8]) [µM] | other results
COC(=O)C1=C(C(F)(F)F)NC(Nc2nc3ccccc3o2)=NC1c1ccccc1Cl (stereo not shown) [Compound 241, methyl 2-(benzo[d]oxazol-2-ylamino)-4-(2-chlorophenyl)-6-(trifluoromethyl)-1,4-dihydropyrimidine-5-carboxylate] | in- active | 10.46 | 2.65 | – | – | hGALK (μM) (recombinant human GALK1; [4]): in- active
CC1=C(C(=O)Nc2cccc(C(N)=O)c2)C(c2ccccc2Cl)N=C(Nc2nc3ccccc3o2)N1 (stereo not shown) [Compound 177, 2-(benzo[d]oxazol-2-ylamino)-N-(3-carbamoylphenyl)-4-(2-chlorophenyl)-6-methyl-1,4-dihydropyrimidine-5-carboxamide] | – | >30 | <1 | 17.2 | 7.69 | IC50 (recombinant mouse GALK1; [5]): 17.2 µM; IC50 (recombinant human GALK1; [7]): 7.69 µM
CC1=C(C(=O)NCc2cn(C)cn2)[C@@H](c2ccccc2Cl)N=C(Nc2nc3ccccc3o2)N1 [Compound 236, (S)-2-(benzo[d]oxazol-2-ylamino)-4-(2-chlorophenyl)-6-methyl-N-((1-methyl-1H-imidazol-4-yl)methyl)-1,4-dihydropyrimidine-5-carboxamide] | in- active | 8.726 | 40.5 | – | – | mGALK IC50 (recombinant mouse GALK1; [9]): inactive; hGALK IC50 (recombinant human GALK1; [10]): inactive; hGALK (μM) (recombinant human GALK1; [4]): in- active
COC(=O)Cc1nnc(NC(=O)C2=C(C)NC(Nc3nc4ccccc4o3)=NC2c2ccccc2Cl)s1 (stereo not shown) [Compound 174, methyl 2-(5-(2-(benzo[d]oxazol-2-ylamino)-4-(2-chlorophenyl)-6-methyl-1,4-dihydropyrimidine-5-carboxamido)-1,3,4-thiadiazol-2-yl)acetate] | – | 8.0854 | <1 | – | 6.11 | IC50 (recombinant human GALK1; [7]): 6.11 µM
O=C1NCCC2=C1C(c1ccccc1Cl)N=C(Nc1nc3ccccc3o1)N2 (stereo not shown) [Compound 245, 2-(benzo[d]oxazol-2-ylamino)-4-(2-chlorophenyl)-4,6,7,8-tetrahydropyrido[4,3-d]pyrimidin-5(1H)-one] | – | – | <1 | – | – | IC50 (recombinant mouse GALK1; [11]): 21.7 µM; IC50 (recombinant human GALK1; [12]): 17.2 µM; Metab. Stabil. (m) [1, 13]: 27.12 m
CC1=C(C(=O)NCc2ccccc2Cl)C(c2ccccc2Cl)N=C(Nc2nc3ccccc3o2)N1 (stereo not shown) [Compound 216, 2-(benzo[d]oxazol-2-ylamino)-N-(2-chlorobenzyl)-4-(2-chlorophenyl)-6-methyl-1,4-dihydropyrimidine-5-carboxamide] | in- active | 4.223 | <1 | – | – | mGALK IC50 (recombinant mouse GALK1; [9]): inactive; hGALK IC50 (recombinant human GALK1; [10]): inactive; hGALK (μM) (recombinant human GALK1; [4]): in- active
CC1=C(C(=O)NCc2ccc(F)cc2)C(c2ccccc2Cl)N=C(Nc2nc3ccccc3o2)N1 (stereo not shown) [Compound 217] | in- active | 11.34 | <1 | – | 7.69 | mGALK IC50 (recombinant mouse GALK1; [9]): inactive; IC50 (recombinant human GALK1; [7]): 7.69 µM
CC1=C(C(=O)Nc2ccc(CO)cn2)C(c2ccccc2Cl)N=C(Nc2nc3ccc(F)cc3o2)N1 (stereo not shown) [Compound 42, 4-(2-chlorophenyl)-2-((6-fluorobenzo[d]oxazol-2-yl)amino)-N-(5-(hydroxymethyl)pyridin-2-yl)-6-methyl-1,4-dihydropyrimidine-5-carboxamide] | – | – | – | 19.3 | 12.2 | Metab. Stabil. (m) ([1]; microsomal half-life): >30 m; Sol. [2]: <1 µg/mL
CC1=C(C(=O)Nc2cc(C(=O)O)ccn2)C(c2ccccc2Cl)N=C(Nc2nc3ccccc3o2)N1CC(=O)O (stereo not shown) [Compound 272] | – | – | >83 | – | – | IC50 (recombinant mouse GALK1; [11]): 13.7 µM; IC50 (recombinant human GALK1; read-out: hGALK): 3.43 µM; Metab. Stabil. (m) [1, 13]: >30 m
CC1=C(C(=O)Nc2ccc(C(=O)N3CCOCC3)cc2)C(c2ccccc2Cl)N=C(Nc2nc3ccccc3o2)N1 (stereo not shown) [Compound 182, 2-(benzo[d]oxazol-2-ylamino)-4-(2-chlorophenyl)-6-methyl-N-(4-(morpholine-4-carbonyl)phenyl)-1,4-dihydropyrimidine-5-carboxamide] | – | >30 | <1 | 21.7 | 19.3 | IC50 (recombinant mouse GALK1; [5]): 21.7 µM; IC50 (recombinant human GALK1; [7]): 19.3 µM

Now from value to compound, other results behind:

mGALK (μM) (recombinant mouse GALK1; [3]) | Metab. Stabil. (m) ([1]; microsomal stability half-life) | Sol. ([2]; aqueous kinetic solubility) [µg/mL] | IC50 (recombinant mouse GALK1; [6]) [µM] | IC50 (recombinant human GALK1; [8]) [µM] | SMILES | other results
– | >30 | <1 | 9.68 | 7.69 | CC1=C(C(=O)Nc2ccccc2F)C(c2ccccc2Cl)N=C(Nc2nc3ccccc3o2)N1 (stereo not shown) [Compound 157, 2-(benzo[d]oxazol-2-ylamino)-N-(2-fluorophenyl)-4-(2-chlorophenyl)-6-methyl-1,4-dihydropyrimidine-5-carboxamide] | IC50 (recombinant mouse GALK1; [5]): 9.68 µM
– | 72.47 | 10.0 | 4.32 | 6.11 | CC1=C(C(=O)Nc2ccc(CN)cc2)C(c2ccccc2Cl)N=C(Nc2nc3ccccc3o2)N1 (stereo not shown) [Compound 169, N-(4-(aminomethyl)phenyl)-2-(benzo[d]oxazol-2-ylamino)-4-(2-chlorophenyl)-6-methyl-1,4-dihydropyrimidine-5-carboxamide] | IC50 (recombinant mouse GALK1; [5]): 4.32 µM; IC50 (recombinant human GALK1; [7]): 6.11 µM
in- active | 30.79 | <1 | – | 4.85 | CC1=C(C(=O)Nc2ccc(Cl)cn2)C(c2ccccc2Cl)N=C(Nc2nc3ccccc3o2)N1 (stereo not shown) [Compound 153, 2-(benzo[d]oxazol-2-ylamino)-4-(2-chlorophenyl)-N-(5-chloropyridin-2-yl)-6-methyl-1,4-dihydropyrimidine-5-carboxamide] | –
– | – | >76 | – | – | CC1=C(C(=O)Nc2cc(C(=O)O)ccn2)C(c2ccccc2Cl)N=C(Nc2nc3ccccc3o2)N1C (stereo not shown) [Compound 273, 2-(2-(benzo[d]oxazol-2-ylamino)-4-(2-chlorophenyl)-1,6-dimethyl-1,4-dihydropyrimidine-5-carboxamido)isonicotinic acid] | IC50 (recombinant mouse GALK1; [11]): 34.3 µM; IC50 (recombinant human GALK1; [12]): 21.7 µM; Metab. Stabil. (m) [1, 13]: >30 m
– | 19.30 | <1 | 13.7 | – | CCOC(=O)C1=C(C)NC(Nc2nc3ccccc3o2)=NC1c1ccccc1Cl (stereo not shown) [Compound 239, ethyl 2-(benzo[d]oxazol-2-ylamino)-4-(2-chlorophenyl)-6-methyl-1,4-dihydropyrimidine-5-carboxylate] | hGALK (μM) (recombinant human GALK1; [4]): in- active
– | – | – | 12.2 | 2.17 | COc1ccc(C(=O)O)cc1NC(=O)C1=C(C)NC(Nc2nc3ccc(F)cc3o2)=NC1c1ccccc1Cl (stereo not shown) [Compound 27, 3-(4-(2-chlorophenyl)-2-((6-fluorobenzo[d]oxazol-2-yl)amino)-6-methyl-1,4-dihydropyrimidine-5-carboxamido)-4-methoxybenzoic acid] | Metab. Stabil. (m) ([1]; microsomal half-life): >30 m; Sol. [2]: 53.3 µg/mL
in- active | 57.5 | <1 | – | – | CCOC(=O)C1=C(C(C)C)NC(Nc2nc3ccccc3o2)=NC1c1ccccc1Cl (stereo not shown) [Compound 240, ethyl 2-(benzo[d]oxazol-2-ylamino)-4-(2-chlorophenyl)-6-isopropyl-1,4-dihydropyrimidine-5-carboxylate] | hGALK (μM) (recombinant human GALK1; [4]): in- active
– | – | – | 6.11 | 15.3 | CNCCNC(=O)C1=C(C)NC(Nc2nc3ccc(F)cc3o2)=NC1c1ccccc1Cl (stereo not shown) [Compound 33, 4-(2-chlorophenyl)-2-((6-fluorobenzo[d]oxazol-2-yl)amino)-6-methyl-N-(2-(methylamino)ethyl)-1,4-dihydropyrimidine-5-carboxamido] | Metab. Stabil. (m) ([1]; microsomal half-life): >30 m; Sol. [2]: >67 µg/mL
